≈ marks a conversion by molar mass, not a printed value.
Experiments:
Type in all cases: functional
Staphylococcus aureus [1] = assay: Antibacterial activity against Staphylococcus aureus ATCC 25923 by two-fold serial dilution method
Staphylococcus aureus [2] = assay: Antibacterial activity against clinical isolate methicillin-resistant Staphylococcus aureus by two-fold serial dilution method
Staphylococcus aureus [3] = assay: Antibacterial activity against methicillin-resistant Staphylococcus aureus ATCC 43300 by two-fold serial dilution method

Molecule `CC1(C)S[C@@H]2[C@H](NC(=O)[C@@H](N)c3ccccc3)C(=O)N2[C@H]1C(=O)OCOC(=O)[C@@H]1N2C(=O)C[C@H]2S(=O)(=O)C1(C)C` has an MIC (Staphylococcus aureus [1]) of 0.78 µg/mL (≈ 1.31 µM), an MIC (Staphylococcus aureus [2]) of 25 µg/mL (≈ 42 µM) and an MIC (Staphylococcus aureus [3]) of 25 µg/mL (≈ 42 µM).

Work on `c1ccc2c([C@@H]3CC[C@@H](c4c[nH]c5ccccc45)c4c3[nH]c3ccccc43)c[nH]c2c1` (relative stereo) yielded an MIC (Staphylococcus aureus [1]) of 3.12 µg/mL (≈ 7.78 µM), an MIC (Staphylococcus aureus [2]) of 6.25 µg/mL (≈ 15.6 µM) and an MIC (Staphylococcus aureus [3]) of 3.12 µg/mL (≈ 7.78 µM).

`c1ccc2c([C@@H]3CCC[C@@H](c4c[nH]c5ccccc45)c4c3[nH]c3ccccc43)c[nH]c2c1` (relative stereo) gave an MIC (Staphylococcus aureus [1]) of 3.12 µg/mL (≈ 7.52 µM), an MIC (Staphylococcus aureus [2]) of 12.5 µg/mL (≈ 30.1 µM) and an MIC (Staphylococcus aureus [3]) of 6.25 µg/mL (≈ 15 µM).

Work on `Clc1ccc2c([C@@H]3CC[C@@H](c4c[nH]c5cc(Cl)ccc45)c4c3[nH]c3cc(Cl)ccc43)c[nH]c2c1` (relative stereo) yielded an MIC (Staphylococcus aureus [1]) of 12.5 µg/mL (≈ 24.8 µM), an MIC (Staphylococcus aureus [2]) of 12.5 µg/mL (≈ 24.8 µM) and an MIC (Staphylococcus aureus [3]) of 12.5 µg/mL (≈ 24.8 µM).

`CC(=O)n1cc([C@H]2CCC[C@@H](c3c[nH]c4ccccc34)c3[nH]c4ccccc4c32)c2ccccc21` (relative stereo) was tested, and the MIC (Staphylococcus aureus [1]) was 25 µg/mL (≈ 54.6 µM), the MIC (Staphylococcus aureus [2]) was 12.5 µg/mL (≈ 27.3 µM) and the MIC (Staphylococcus aureus [3]) was 12.5 µg/mL (≈ 27.3 µM).

`Clc1ccc2[nH]cc([C@@H]3CC[C@@H](c4c[nH]c5ccc(Cl)cc45)c4c3[nH]c3ccc(Cl)cc43)c2c1` (relative stereo) showed an MIC (Staphylococcus aureus [1]) of 3.12 µg/mL (≈ 6.19 µM), an MIC (Staphylococcus aureus [2]) of 12.5 µg/mL (≈ 24.8 µM) and an MIC (Staphylococcus aureus [3]) of 6.25 µg/mL (≈ 12.4 µM).

`CC(=O)n1cc([C@H]2CC[C@@H](c3cn(C(C)=O)c4ccccc34)c3c2c2ccccc2n3C(C)=O)c2ccccc21` (relative stereo) was tested, and the MIC (Staphylococcus aureus [1]) was 50 µg/mL (≈ 94.8 µM), the MIC (Staphylococcus aureus [2]) was 50 µg/mL (≈ 94.8 µM) and the MIC (Staphylococcus aureus [3]) was 50 µg/mL (≈ 94.8 µM).

`Clc1ccc2[nH]cc([C@@H]3CCC[C@@H](c4c[nH]c5ccc(Cl)cc45)c4c3[nH]c3ccc(Cl)cc43)c2c1` (relative stereo) gave an MIC (Staphylococcus aureus [1]) of 3.12 µg/mL (≈ 6.02 µM), an MIC (Staphylococcus aureus [2]) of 6.25 µg/mL (≈ 12 µM) and an MIC (Staphylococcus aureus [3]) of 6.25 µg/mL (≈ 12 µM).

Work on `Clc1ccc2c([C@@H]3CCC[C@@H](c4c[nH]c5cc(Cl)ccc45)c4c3[nH]c3cc(Cl)ccc43)c[nH]c2c1` (relative stereo) yielded an MIC (Staphylococcus aureus [1]) of 3.12 µg/mL (≈ 6.02 µM), an MIC (Staphylococcus aureus [2]) of 12.5 µg/mL (≈ 24.1 µM) and an MIC (Staphylococcus aureus [3]) of 6.25 µg/mL (≈ 12 µM).

For `c1ccc2c([C@@H]3CCCC[C@@H](c4c[nH]c5ccccc45)c4c3[nH]c3ccccc43)c[nH]c2c1` (relative stereo), the MIC (Staphylococcus aureus [1]) was 3.12 µg/mL (≈ 7.27 µM), the MIC (Staphylococcus aureus [2]) was 12.5 µg/mL (≈ 29.1 µM) and the MIC (Staphylococcus aureus [3]) was 6.25 µg/mL (≈ 14.5 µM).

In the case of `c1ccc2c([C@@H]3C[C@@H](c4c[nH]c5ccccc45)c4c3[nH]c3ccccc43)c[nH]c2c1` (relative stereo), the MIC (Staphylococcus aureus [1]) is reported as 50 µg/mL (≈ 129 µM), the MIC (Staphylococcus aureus [2]) is reported as 12.5 µg/mL (≈ 32.3 µM) and the MIC (Staphylococcus aureus [3]) is reported as 12.5 µg/mL (≈ 32.3 µM).

`BrC1[C@@H](c2c[nH]c3ccccc23)c2[nH]c3ccccc3c2[C@@H]1c1c[nH]c2ccccc12` (relative stereo) was tested, and the MIC (Staphylococcus aureus [1]) was 3.12 µg/mL (≈ 6.7 µM), the MIC (Staphylococcus aureus [2]) was 6.25 µg/mL (≈ 13.4 µM) and the MIC (Staphylococcus aureus [3]) was 3.12 µg/mL (≈ 6.7 µM).

In the case of `CC(=O)n1cc([C@@H]2CC[C@H](c3cn(C(C)=O)c4ccccc34)c3c2[nH]c2ccccc32)c2ccccc21` (relative stereo), the MIC (Staphylococcus aureus [1]) is reported as 100 µg/mL (≈ 206 µM), the MIC (Staphylococcus aureus [2]) is reported as 100 µg/mL (≈ 206 µM) and the MIC (Staphylococcus aureus [3]) is reported as 100 µg/mL (≈ 206 µM).

Molecule `CC(=O)n1cc([C@H]2CCC[C@@H](c3cn(C(=O)O)c4ccccc34)c3[nH]c4ccccc4c32)c2ccccc21` (relative stereo) has an MIC (Staphylococcus aureus [1]) of 100 µg/mL (≈ 199 µM), an MIC (Staphylococcus aureus [2]) of 50 µg/mL (≈ 99.7 µM) and an MIC (Staphylococcus aureus [3]) of 50 µg/mL (≈ 99.7 µM).

With `ClC1[C@@H](c2c[nH]c3ccccc23)c2[nH]c3ccccc3c2[C@@H]1c1c[nH]c2ccccc12` (relative stereo) the MIC (Staphylococcus aureus [1]) was 3.12 µg/mL (≈ 7.41 µM), the MIC (Staphylococcus aureus [2]) was 6.25 µg/mL (≈ 14.8 µM) and the MIC (Staphylococcus aureus [3]) was 3.12 µg/mL (≈ 7.41 µM).

With `CC1(C)S[C@@H]2[C@H](NC(=O)[C@H](N)c3ccccc3)C(=O)N2[C@H]1C(=O)O` [AMPICILLIN] the MIC (Staphylococcus aureus [1]) was 1.56 µg/mL (≈ 4.46 µM), the MIC (Staphylococcus aureus [2]) was 50 µg/mL (≈ 143 µM) and the MIC (Staphylococcus aureus [3]) was 50 µg/mL (≈ 143 µM).
